{
  "source": "patent US12583829B2",
  "about": "“Salt of benzothiazole compound, and crystal form and use thereof” (Sichuan Kelun Pharmaceutical Research Institute Co., Ltd., priority 2020, dated 2026)",
  "key": {"[1]": {"test": "Solubility test in pure water, room temperature, HPLC", "type": "physicochemical", "conditions": "thermodynamic from solid, excess sample, shaken at room temperature for 15 h, filtered", "method": "The samples were taken into pure water, and an excess amount of samples were added, which were then shaked at room temperature for 15 h, and filtered, and detected by HPLC. HPLC test conditions: mobile phase: sodium octanesulfonate-potassium dihydrogen phosphate buffer solution (5.0 g of sodium octanesulfonate and 9.1 g of potassium dihydrogen phosphate were taken, and added into 1000 ml of water for dissolution, and the pH was adjusted to 3.0 with phosphoric acid)-acetonitrile (72:28); The detection wavelength was 264 nm; The flow rate was 1.5 ml per minute; The column temperature was 40° C.; Injection volume: 10 μl; Chromatographic column: octadecyl silane bonded silica gel as filler (CAPCELL PAK MG II C18, 4.6 mm×250 mm, 5 μm)."}, "[2]": {"conditions": "rats, FDA data for Mirapex ER (pramipexole dihydrochloride), NDA 22-421; cited from earlier work"}},
  "data": [
    {"smiles": "CCCN[C@H]1CCc2nc(N)sc2C1", "note": "[Compound of formula I, (S)-2-amino-4,5,6,7-tetrahydro-6-propylamine-benzothiazole]", "values": [
      {"measurement": "solubility at 15 h", "setting": "[1]", "result": 140, "unit": "µg/mL"},
      {"measurement": "T1/2", "setting": "[2]", "result": 3.18, "unit": "h"},
      {"measurement": "Tmax", "setting": "[2]", "result": 0.5, "unit": "h"}
    ]}
  ]
}
